# From article PMC7611204 (Molecular cancer therapeutics, 2020)
# Legend:
# [1] = target: T1, serine hydroxymethyltransferase 2 (SHMT2) (Homo sapiens, UniProt P34897); assay: microscale thermophoresis with labeled recombinant human SHMT2; format: binding
# T1 sequence (P34897 30-504): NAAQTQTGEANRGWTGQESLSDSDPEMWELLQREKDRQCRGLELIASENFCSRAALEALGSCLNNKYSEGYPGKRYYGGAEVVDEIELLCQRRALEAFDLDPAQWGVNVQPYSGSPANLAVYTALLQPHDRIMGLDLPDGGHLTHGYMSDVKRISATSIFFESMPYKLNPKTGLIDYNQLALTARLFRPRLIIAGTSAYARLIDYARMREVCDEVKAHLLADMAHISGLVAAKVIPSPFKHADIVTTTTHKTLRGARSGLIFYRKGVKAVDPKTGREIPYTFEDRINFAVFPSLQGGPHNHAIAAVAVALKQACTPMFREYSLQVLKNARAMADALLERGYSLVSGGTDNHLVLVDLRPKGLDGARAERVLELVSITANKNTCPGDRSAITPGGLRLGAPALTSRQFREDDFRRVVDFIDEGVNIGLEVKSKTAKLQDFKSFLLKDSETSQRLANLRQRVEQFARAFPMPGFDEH
# [2] = target: T2, phosphoglycerate dehydrogenase (PHGDH) (Homo sapiens, UniProt O43175)
# T2 sequence (O43175 2-533): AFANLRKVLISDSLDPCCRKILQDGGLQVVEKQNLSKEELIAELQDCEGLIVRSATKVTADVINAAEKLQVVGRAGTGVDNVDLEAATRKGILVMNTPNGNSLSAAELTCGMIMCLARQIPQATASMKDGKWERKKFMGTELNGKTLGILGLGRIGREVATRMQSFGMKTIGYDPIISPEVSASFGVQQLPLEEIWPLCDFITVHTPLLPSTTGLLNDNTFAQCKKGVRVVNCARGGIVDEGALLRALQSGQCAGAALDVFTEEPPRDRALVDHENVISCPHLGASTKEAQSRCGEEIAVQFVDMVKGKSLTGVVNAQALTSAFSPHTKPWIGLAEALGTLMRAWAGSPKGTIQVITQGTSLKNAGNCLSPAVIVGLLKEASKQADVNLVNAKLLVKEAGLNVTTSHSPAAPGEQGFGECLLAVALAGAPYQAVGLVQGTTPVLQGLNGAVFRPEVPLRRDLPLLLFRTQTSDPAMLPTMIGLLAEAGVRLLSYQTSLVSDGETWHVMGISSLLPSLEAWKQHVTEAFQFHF
SMILES,Kd [1] [µM],IC50 [2] [µM]
CN[C@H]1CC[C@@H](c2ccc(Cl)c(Cl)c2)c2ccccc21 [sertraline],13.1,–
C[CH2][Hg][S]c1ccccc1C(=O)O [thimerosal],–,0.152
